≈ marks a conversion by molar mass, not a printed value. Calls of active or inactive are those of the source. The rule behind the calls is not given here.
Columns and labels:
[1] = target: T1, UDP-glucuronosyltransferase 2B17 (Homo sapiens, UniProt O75795); test: Substrate activity at recombinant human UGT2B17 expressed in baculovirus infected insect cell membranes assessed as enzyme-mediated glucuronidation by measuring Vmax per mg protein at 50 uM preincubated for 5 mins followed by UDPGA addition and measured after 60 mins by LC-MS/MS analysis; assay type: ADME; conditions: 1 h
T1 sequence (O75795 whole entry): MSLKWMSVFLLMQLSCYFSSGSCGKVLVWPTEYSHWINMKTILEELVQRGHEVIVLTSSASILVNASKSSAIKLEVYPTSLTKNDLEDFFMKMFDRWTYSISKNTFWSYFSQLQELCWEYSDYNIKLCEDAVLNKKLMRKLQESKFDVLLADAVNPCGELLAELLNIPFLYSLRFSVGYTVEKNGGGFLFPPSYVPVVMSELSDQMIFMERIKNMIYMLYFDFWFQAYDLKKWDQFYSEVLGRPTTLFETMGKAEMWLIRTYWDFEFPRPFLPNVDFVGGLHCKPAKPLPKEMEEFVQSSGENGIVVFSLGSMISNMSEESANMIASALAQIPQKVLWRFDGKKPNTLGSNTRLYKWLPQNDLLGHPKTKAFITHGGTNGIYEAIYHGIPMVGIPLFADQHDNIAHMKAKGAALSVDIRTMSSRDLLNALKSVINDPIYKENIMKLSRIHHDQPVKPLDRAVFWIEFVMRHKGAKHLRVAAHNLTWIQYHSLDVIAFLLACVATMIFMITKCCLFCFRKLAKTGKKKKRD

UGT2B17 [2] = target: T2, UGT2B17 (Homo sapiens, UniProt O75795); test: Substrate activity at recombinant human UGT2B17 expressed in baculovirus infected insect cell membranes assessed as enzyme-mediated glucuronidation by measuring Km at 50 uM preincubated for 5 mins followed by UDPGA addition and measured after 60 mins by LC-MS/MS analysis; assay type: ADME
T2 sequence (O75795 whole entry): T1 sequence (O75795 whole entry)

[3] = target: T1, UDP-glucuronosyltransferase 2B17; test: Substrate activity at UGT2B17 in human intestinal microsomes assessed as enzyme-mediated glucuronidation by measuring Vmax per mg protein at 2 to 1000 uM preincubated for 5 mins followed by UDPGA addition and measured after 60 mins by LC-MS/MS analysis; assay type: ADME, Intestine; conditions: 1 h
UGT2B17 [4] = target: T2, UGT2B17; test: Substrate activity at UGT2B17 in human intestinal microsomes assessed as enzyme-mediated glucuronidation by measuring Km at 2 to 1000 uM preincubated for 5 mins followed by UDPGA addition and measured after 60 mins by LC-MS/MS analysis; assay type: ADME, Intestine
[5] = Drug metabolism in human hepatocytes assessed as PT2639 formation by HPLC-UV analysis; assay type: ADME, cell-based, Hepatocyte
[6] = Protein binding in human plasma at 10 uM measured after 4 hrs by LC-MS/MS analysis; assay type: ADME, cell-free; conditions: read-out: PPB (converted)
[7] = Lipophilicity, log D of the compound at pH 7.4; assay type: physicochemical; conditions: buffer
[8] = Drug metabolism in po dosed dog urine assessed as PT2639 formation; assay type: ADME, organism-based, Canis lupus familiaris; conditions: in vivo
[9] = Thermodynamic aqueous solubility of the compound at pH 7.4; assay type: physicochemical; conditions: buffer, read-out: Therm_solubility
[10] = target: UDP-glucuronosyltransferase 1A3 (Homo sapiens, UniProt P35503); test: Substrate activity at recombinant human UGT1A3 expressed in baculovirus infected insect cell membranes assessed as enzyme-mediated glucuronidation by measuring PT2639 formation at 50 uM preincubated for 5 mins followed by UDPGA addition and measured after 60 mins by LC-MS/MS analysis; assay type: ADME; conditions: 1 h
UDP-glucuronosyltransferase 1A3, sequence (P35503 whole entry): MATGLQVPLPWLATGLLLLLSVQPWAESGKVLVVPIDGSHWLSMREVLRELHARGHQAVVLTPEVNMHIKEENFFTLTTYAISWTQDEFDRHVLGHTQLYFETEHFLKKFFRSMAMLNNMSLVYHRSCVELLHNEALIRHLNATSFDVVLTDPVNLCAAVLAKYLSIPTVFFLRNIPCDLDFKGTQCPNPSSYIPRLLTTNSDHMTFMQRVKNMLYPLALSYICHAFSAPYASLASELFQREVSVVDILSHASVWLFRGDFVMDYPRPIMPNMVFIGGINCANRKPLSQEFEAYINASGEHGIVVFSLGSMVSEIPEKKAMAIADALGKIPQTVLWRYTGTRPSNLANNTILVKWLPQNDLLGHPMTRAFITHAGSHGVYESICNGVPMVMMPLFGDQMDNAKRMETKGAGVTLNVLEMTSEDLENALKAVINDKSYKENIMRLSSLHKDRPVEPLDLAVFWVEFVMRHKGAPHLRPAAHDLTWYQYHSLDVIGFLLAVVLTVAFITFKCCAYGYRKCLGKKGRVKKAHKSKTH

[11] = target: UDP-glucuronosyltransferase 1A7 (Homo sapiens, UniProt Q9HAW7); test: Substrate activity at recombinant human UGT1A7 expressed in baculovirus infected insect cell membranes assessed as enzyme-mediated glucuronidation by measuring PT2639 formation at 50 uM preincubated for 5 mins followed by UDPGA addition and measured after 60 mins by LC-MS/MS analysis; assay type: ADME; conditions: 1 h
[12] = Protein binding in mouse plasma at 10 uM measured after 4 hrs by LC-MS/MS analysis; assay type: ADME, cell-free; conditions: read-out: PPB (converted)
[13] = Dose normalized AUClast in CD-1 mouse at 10 mg/kg, po administered via gavage by UPLC-MS analysis; assay type: ADME, organism-based; conditions: in vivo
[14] = Dose normalized AUClast in Sprague-Dawley rat at 10 mg/kg, po administered via gavage by UPLC-MS analysis; assay type: ADME, organism-based; conditions: in vivo
[15] = Dose normalized AUClast in Beagle dog at 5 mg/kg, po administered via gavage by UPLC-MS analysis; assay type: ADME, organism-based, Canis lupus familiaris; conditions: in vivo
[16] = Dose normalized AUClast in monkey at 10 mg/kg, po administered via gavage by UPLC-MS analysis; assay type: ADME, organism-based, Macaca mulatta; conditions: rhesus monkey, in vivo
Mus musculus = test: In vivo inhibition of HIF-2alpha in SCID Beige mouse xenografted with human 786-O cells assessed as reduction in cyclin D1 mRNA expression at 10 mg/kg, po administered twice daily via gavage for 3 days measured 12 hrs post-last dose by qRT-PCR analysis; assay type: functional, organism-based
[17] = Drug level in plasma of SCID Beige mouse xenografted with human 786-O cells at 10 mg/kg, po administered twice daily via gavage for 3 days measured 12 hrs post-last dose; assay type: ADME, organism-based
786-0 = test: Antitumor activity against human 786-O cells xenografted in SCID Beige mouse assessed as tumor regression at 10 mg/kg, po administered twice daily via gavage for 3 days measured 12 hrs post-last; assay type: functional, organism-based
Homo sapiens = test: In vivo inhibition of HIF-2alpha in patient with advanced solid tumor assessed as reduction in EPO expression at >500 ng/ml, po administered once daily; assay type: organism-based
[18] = Cmin in patient with advanced solid tumor at 800 mg, po administered twice daily measured on day 15 measured after 12 hrs; conditions: human, in vivo
[19] = target: T3, Endothelial PAS domain-containing protein 1 (Homo sapiens, UniProt Q99814); test: Inhibition of N-(3-Chlorophenyl-4,6-t2)-4-nitrobenzo[c][1,2,5]oxadiazol-5-amine binding to his-tagged HIF-2alpha PAS-B domain (unknown origin) measured after 1 hr by scintillation proximity assay
T3 sequence (Q99814 whole entry, the tested form may be a part): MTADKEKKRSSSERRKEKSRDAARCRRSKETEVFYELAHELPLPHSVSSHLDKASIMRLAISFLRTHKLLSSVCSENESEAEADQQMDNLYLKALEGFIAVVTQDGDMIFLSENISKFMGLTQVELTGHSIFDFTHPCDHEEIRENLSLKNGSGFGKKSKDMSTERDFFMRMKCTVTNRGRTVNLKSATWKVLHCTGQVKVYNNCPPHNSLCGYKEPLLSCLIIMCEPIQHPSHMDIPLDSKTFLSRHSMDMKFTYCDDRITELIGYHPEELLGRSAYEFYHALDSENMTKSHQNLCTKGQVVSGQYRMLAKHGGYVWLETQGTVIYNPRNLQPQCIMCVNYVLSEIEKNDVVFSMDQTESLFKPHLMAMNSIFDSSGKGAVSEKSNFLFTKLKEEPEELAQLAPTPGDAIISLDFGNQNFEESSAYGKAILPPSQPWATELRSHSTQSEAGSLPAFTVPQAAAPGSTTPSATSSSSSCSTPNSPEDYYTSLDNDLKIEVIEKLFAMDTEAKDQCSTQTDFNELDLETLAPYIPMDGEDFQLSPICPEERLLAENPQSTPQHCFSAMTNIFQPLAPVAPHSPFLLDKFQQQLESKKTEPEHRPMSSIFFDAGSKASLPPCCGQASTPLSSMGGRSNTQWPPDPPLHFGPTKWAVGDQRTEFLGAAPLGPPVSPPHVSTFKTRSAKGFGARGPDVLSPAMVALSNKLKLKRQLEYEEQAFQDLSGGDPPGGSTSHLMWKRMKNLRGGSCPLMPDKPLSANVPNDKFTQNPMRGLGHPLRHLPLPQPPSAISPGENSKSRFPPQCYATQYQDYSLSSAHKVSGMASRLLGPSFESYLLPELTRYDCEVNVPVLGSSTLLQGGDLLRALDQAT

[20] = target: T3, Endothelial PAS domain-containing protein 1
Description: Inhibition of HIF-2alpha (unknown origin) expressed in human 786-O cells measured after 24 hrs by one-glo luciferase reporter gene assay

[21] = Drug metabolism in iv or po dosed dog assessed as PT2385 formation; assay type: ADME, organism-based, Canis lupus familiaris; conditions: in vivo
[22] = Drug level in human hepatocytes treated with PT2385 assessed as metabolite formation by HPLC-UV analysis; assay type: ADME, cell-based, Hepatocyte
BCRP (ABCG2) = BCRP (ABCG2) (Homo sapiens, UniProt Q9UNQ0); test: Substrate activity at BCRP (unknown origin) expressed in MDCK2 cells assessed as efflux ratio of permeability at up to 300 uM; assay type: ADME, cell-based
BCRP (ABCG2), sequence (Q9UNQ0 whole entry): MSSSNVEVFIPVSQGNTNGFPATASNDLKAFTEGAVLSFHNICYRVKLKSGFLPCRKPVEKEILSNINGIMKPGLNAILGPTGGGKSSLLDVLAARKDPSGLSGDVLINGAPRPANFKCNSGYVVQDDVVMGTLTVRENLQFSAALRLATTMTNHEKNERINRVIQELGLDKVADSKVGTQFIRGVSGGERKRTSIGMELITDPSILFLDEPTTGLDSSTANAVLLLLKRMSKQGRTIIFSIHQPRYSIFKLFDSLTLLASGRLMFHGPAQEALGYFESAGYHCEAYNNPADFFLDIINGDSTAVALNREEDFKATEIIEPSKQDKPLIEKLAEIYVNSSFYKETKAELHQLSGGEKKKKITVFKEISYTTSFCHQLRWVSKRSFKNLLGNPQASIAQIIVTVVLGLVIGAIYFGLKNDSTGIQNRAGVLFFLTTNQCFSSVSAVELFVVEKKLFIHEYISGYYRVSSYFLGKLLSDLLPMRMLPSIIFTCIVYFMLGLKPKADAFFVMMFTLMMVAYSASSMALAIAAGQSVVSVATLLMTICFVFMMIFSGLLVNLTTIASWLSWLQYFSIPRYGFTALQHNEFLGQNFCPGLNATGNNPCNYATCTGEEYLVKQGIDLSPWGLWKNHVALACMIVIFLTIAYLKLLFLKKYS

P-gp (ABCB1) = P-gp (ABCB1) (Homo sapiens, UniProt P08183); test: Substrate activity at P-gp (unknown origin) expressed in MDCK2 cells assessed as efflux ratio of permeability at up to 300 uM; assay type: ADME, cell-based; conditions: MDCK-MDR1
P-gp (ABCB1), sequence (P08183 whole entry): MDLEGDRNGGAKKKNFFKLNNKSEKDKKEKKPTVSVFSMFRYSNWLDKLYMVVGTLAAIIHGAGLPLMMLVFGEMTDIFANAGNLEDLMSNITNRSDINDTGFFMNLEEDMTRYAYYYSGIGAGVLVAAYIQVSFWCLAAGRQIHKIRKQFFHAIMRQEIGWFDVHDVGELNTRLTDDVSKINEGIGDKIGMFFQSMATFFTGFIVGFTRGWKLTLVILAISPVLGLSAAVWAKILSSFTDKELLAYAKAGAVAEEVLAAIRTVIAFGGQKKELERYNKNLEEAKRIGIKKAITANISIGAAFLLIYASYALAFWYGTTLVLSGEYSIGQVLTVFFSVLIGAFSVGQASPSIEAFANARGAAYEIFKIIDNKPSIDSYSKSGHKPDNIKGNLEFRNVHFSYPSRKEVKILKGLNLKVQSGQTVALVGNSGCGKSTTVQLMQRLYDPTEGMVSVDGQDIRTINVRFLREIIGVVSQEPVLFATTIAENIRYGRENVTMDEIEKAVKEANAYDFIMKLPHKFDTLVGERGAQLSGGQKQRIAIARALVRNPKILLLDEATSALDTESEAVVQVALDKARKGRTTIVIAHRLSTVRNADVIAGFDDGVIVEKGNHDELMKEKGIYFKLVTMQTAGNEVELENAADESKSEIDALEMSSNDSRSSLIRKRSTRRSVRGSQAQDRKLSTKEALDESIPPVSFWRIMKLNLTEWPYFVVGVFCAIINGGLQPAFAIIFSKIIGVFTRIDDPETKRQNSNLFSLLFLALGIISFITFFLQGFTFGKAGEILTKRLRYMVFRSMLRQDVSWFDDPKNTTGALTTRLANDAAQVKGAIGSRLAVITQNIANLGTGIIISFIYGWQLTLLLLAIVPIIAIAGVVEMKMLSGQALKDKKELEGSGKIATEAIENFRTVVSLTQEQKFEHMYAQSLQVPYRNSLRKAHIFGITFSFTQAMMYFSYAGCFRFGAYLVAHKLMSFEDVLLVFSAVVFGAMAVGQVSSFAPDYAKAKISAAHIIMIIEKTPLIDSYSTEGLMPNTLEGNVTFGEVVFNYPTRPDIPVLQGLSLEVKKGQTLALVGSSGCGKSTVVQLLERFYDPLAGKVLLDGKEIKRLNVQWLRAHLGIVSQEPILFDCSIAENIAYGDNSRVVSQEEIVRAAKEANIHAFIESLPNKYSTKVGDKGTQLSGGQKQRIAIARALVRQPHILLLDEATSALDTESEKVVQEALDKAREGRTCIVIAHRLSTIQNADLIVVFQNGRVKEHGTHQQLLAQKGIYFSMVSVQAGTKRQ

[23] = target: T4, ATP-binding cassette sub-family C member 2 (Homo sapiens, UniProt Q92887); test: Ratio of compound effect for substrate activity at human MRP2 expressed in Sf9 membrane vesicles assessed as protein-mediated drug uptake in presence of ATP to compound effect for substrate activity at human MRP2 expressed in Sf9 membrane vesicles assessed as protein-mediated drug uptake in absence of ATP; assay type: ADME, cell membranes
T4 sequence (Q92887 whole entry): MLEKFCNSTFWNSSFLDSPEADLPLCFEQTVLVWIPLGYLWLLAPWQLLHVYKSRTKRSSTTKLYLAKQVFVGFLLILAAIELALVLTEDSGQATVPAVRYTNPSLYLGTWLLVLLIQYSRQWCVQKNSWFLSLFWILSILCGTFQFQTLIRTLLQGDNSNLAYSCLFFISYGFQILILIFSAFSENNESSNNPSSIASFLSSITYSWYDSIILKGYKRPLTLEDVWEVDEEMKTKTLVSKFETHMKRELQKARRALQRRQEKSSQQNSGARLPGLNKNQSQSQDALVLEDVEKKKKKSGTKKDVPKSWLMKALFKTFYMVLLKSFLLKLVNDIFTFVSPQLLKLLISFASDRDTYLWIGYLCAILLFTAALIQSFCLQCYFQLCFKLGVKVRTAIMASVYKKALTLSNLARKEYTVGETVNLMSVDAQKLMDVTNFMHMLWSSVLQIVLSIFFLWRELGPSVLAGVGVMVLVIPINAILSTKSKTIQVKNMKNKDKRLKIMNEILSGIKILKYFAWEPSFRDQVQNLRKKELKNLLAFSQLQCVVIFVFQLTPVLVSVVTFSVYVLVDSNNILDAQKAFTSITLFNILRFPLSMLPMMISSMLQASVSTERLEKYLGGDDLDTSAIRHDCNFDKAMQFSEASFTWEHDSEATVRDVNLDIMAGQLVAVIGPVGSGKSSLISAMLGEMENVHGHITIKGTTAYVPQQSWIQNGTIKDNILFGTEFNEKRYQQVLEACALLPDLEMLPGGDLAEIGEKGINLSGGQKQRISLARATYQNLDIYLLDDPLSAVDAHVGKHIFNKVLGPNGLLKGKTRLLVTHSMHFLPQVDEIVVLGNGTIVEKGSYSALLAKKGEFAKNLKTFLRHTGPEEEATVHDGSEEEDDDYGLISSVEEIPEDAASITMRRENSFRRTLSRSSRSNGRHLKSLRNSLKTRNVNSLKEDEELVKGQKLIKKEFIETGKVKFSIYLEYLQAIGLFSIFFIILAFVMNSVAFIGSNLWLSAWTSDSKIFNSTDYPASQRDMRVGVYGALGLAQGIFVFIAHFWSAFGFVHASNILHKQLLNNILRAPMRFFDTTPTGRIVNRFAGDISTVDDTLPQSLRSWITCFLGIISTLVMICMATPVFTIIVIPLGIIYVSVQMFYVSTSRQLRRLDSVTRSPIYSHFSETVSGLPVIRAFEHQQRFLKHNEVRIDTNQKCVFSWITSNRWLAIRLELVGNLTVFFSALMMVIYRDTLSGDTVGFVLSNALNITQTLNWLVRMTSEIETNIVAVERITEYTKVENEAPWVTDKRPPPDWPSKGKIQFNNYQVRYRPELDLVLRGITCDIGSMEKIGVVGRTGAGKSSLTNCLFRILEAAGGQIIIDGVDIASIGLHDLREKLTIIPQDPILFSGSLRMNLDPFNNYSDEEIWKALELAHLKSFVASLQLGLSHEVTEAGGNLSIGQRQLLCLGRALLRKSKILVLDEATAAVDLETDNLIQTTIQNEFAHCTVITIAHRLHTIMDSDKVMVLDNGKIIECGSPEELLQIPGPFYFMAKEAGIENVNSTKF

[24] = target: T4, ATP-binding cassette sub-family C member 2; test: Substrate activity at human MRP2 expressed in Sf9 membrane vesicles assessed as Vmax per mg protein; assay type: ADME
MRP2 (ABCC2) = MRP2 (ABCC2) (Homo sapiens, UniProt Q92887); test: Substrate activity at human MRP2 expressed in Sf9 membrane vesicles assessed as Km; assay type: ADME; conditions: Sf9 membrane vesicles expressing human MRP2
MRP2 (ABCC2), sequence (Q92887 whole entry): as above

Beta-glucuronidase = Beta-glucuronidase (Escherichia coli (strain K12), UniProt P05804); test: Drug metabolism assessed as Escherichia coli beta-glucuronidase-mediated PT2385 formation after 30 mins by LC-MS/MS analysis; assay type: ADME; conditions: isolated protein, 0.5 h

| Vmax [1] [pmol/min] | Km at 1 h, 50 µM (UGT2B17 [2]) [µM] | Vmax [3] [pmol/min] | Km at 1 h, up to 1000 µM (UGT2B17 [4]) [µM] | IC50 [19] [µM] | Compound | also measured |
| --- | --- | --- | --- | --- | --- | --- |
| 14 | 15 | 2.1 | 28 |  | CS(=O)(=O)c1ccc(Oc2cc(F)cc(C#N)c2)c2c1[C@H](O)[C@H](F)C2 |  |
| 50 | 15 | 11 | 26 |  | CS(=O)(=O)c1ccc(Oc2cc(F)cc(C#N)c2)c2c1[C@H](O)[C@@H](F)C2 |  |
| 280 | 11 | 49 | 20 |  | CS(=O)(=O)c1ccc(Oc2cc(F)cc(C#N)c2)c2c1[C@H](O)C(F)(F)C2 | Drug metabolism [5]: Metabolite_Detected; fraction unbound at 4 h, 10 µM [6]: 0.18; logD [7]: 2.2; Drug metabolism [8]: Metabolite_Detected; solubility thermodynamic [9]: 0.015 mg/mL (≈ 39.1 µM); Drug metabolism [10]: Metabolite_Notdetected; Drug metabolism [11]: Metabolite_Notdetected; fraction unbound at 4 h, 10 µM [12]: 0.29; AUClast/dose [13]: 21 µM·h; AUClast/dose [14]: 5.1 µM·h; AUClast/dose [15]: 7.2 µM·h; AUClast/dose [16]: 3.1 µM·h; inhibition (Mus musculus): Active; concentration at 12 h [17]: 0.26 µg/mL; Activity (786-0): Active; inhibition (INH) (Homo sapiens): Active; concentration at 12 h [18]: 0.86 µg/mL |
|  |  |  |  | > 10 | CS(=O)(=O)c1ccc(Oc2cc(F)cc(C#N)c2)c2c1[C@H](O)C[C@H]2F |  |
| 3.8 | 12 | 0.8 | 40 |  | CS(=O)(=O)c1ccc(Oc2cc(F)cc(C#N)c2)c2c1[C@H](O)CC2 |  |
| 440 | 5.5 | 72 | 15 | 0.009 | CS(=O)(=O)c1ccc(Oc2cc(F)cc(C#N)c2)c2c1[C@H](O)C(F)(F)[C@@H]2F | EC50 [20]: 0.004 µM |
| 1.4 | 12 | 0.3 | 130 | 0.21 | CS(=O)(=O)c1ccc(Oc2cc(F)cc(C#N)c2)c2c1[C@H](O)C[C@@H]2F | EC50 [20]: 0.46 µM |
|  |  |  |  |  | CS(=O)(=O)c1ccc(Oc2cc(F)cc(C#N)c2)c2c1[C@H](O[C@@H]1O[C@H](C(=O)O)[C@@H](O)[C@H](O)[C@H]1O)C(F)(F)C2 | Drug metabolism [21]: Metabolite_Detected; Drug metabolism [22]: Metabolite_Detected; efflux ratio (BCRP (ABCG2)): < 2; efflux ratio (P-gp (ABCB1)): < 2; Ratio [23]: 32; Vmax [24]: 1230 pmol/min; Km (MRP2 (ABCC2)): 97 µM; Drug metabolism (Beta-glucuronidase): Metabolite_Detected |

— ChEMBL document CHEMBL4311943, “3-[(1S,2S,3R)-2,3-Difluoro-1-hydroxy-7-methylsulfonylindan-4-yl]oxy-5-fluorobenzonitrile (PT2977), a Hypoxia-Inducible Factor 2α (HIF-2α) Inhibitor for the Treatment of Clear Cell Renal Cell Carcinoma” (J Med Chem, 2019)
